The source of these data is PubChem BioAssay AID256 (DTP/NCI, 2004).

Values joined by “and” are separate entries in the source; they are usually repeats but may differ in a detail not shown here. Identical values can stand only once. Inconclusive results and toxic doses are left out.

The subject of the assay is CD2F1 mice, L1210 leukemia ip, survival T/C. Description: NCI In Vivo Anticancer Drug Screen. Data for tumor model L1210 Leukemia (intraperitoneal) in CD2F1 (CDF1) mice. Conditions: higher = longer survival. In a few lines:
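In this screen, transplantable tumors were grown in mice given either the compound or its vehicle. Results were expressed as the treated measurement relative to the control measurement.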

The mark [1] stands for this setting: endpoint: mean survival time, dose: 100.0 mg/kg/injection, schedule: Q01DX009 (ip), vehicle: saline with Tween-80.
[2] abbreviates: endpoint: mean survival time, dose: 200.0 mg/kg/injection, schedule: Q01DX009 (ip), vehicle: saline with Tween-80.
The mark [3] stands for this setting: endpoint: mean survival time, dose: 100.0 mg/kg/injection, schedule: Q04DX002 (ip), vehicle: saline with Tween-80.
[4] abbreviates: endpoint: mean survival time, dose: 200.0 mg/kg/injection, schedule: Q04DX002 (ip), vehicle: saline with Tween-80.
Where [5] appears, read: endpoint: mean survival time, dose: 400.0 mg/kg/injection, schedule: Q04DX002 (ip), vehicle: saline with Tween-80.
Setting [6] is: endpoint: mean survival time, dose: 50.0 mg/kg/injection, schedule: Q01DX009 (ip), vehicle: saline with Tween-80.
Setting [7] is: endpoint: mean survival time, dose: 50.0 mg/kg/injection, schedule: Q04DX003 (ip), vehicle: saline with Tween-80.
Setting [8] is: endpoint: mean survival time, dose: 100.0 mg/kg/injection, schedule: Q04DX003 (ip), vehicle: saline with Tween-80.
The mark [9] stands for this setting: endpoint: mean survival time, dose: 200.0 mg/kg/injection, schedule: Q04DX003 (ip), vehicle: saline with Tween-80.
Where [10] appears, read: endpoint: mean survival time, dose: 400.0 mg/kg/injection, schedule: Q01DX009 (ip), vehicle: saline with Tween-80.

As for `CN(CCC#N)Cc1cc(C(C)(C)C)cc(-c2ccccc2)c1O`, the T/C is 90 % of control under setting [1] and 90 % of control under setting [2].

As for `CN(C)c1ccc(/C=C/C(=O)Cc2ccccc2)cc1`, for the setting “endpoint: mean survival time, dose: 100.0 mg/kg/injection, schedule: Q01DX001 (ip), vehicle: saline sonified”, the T/C is 100 % of control.

In the case of `Cc1cc(S(=O)(=O)c2ccc(O)c(C)c2)ccc1O`, the T/C is, setting by setting: under setting [3], 103 % of control; under setting [4], 100 % of control; under setting [5], 97 % of control.

Turning to `Nc1nc(N)c2nc(CCOc3ccc(C(=O)NC(CCC(=O)O)C(=O)O)cc3)cnc2n1` (centres undefined), the T/C was 87 % of control (endpoint: mean survival time, dose: 0.38 mg/kg/injection, schedule: Q01DX009 (ip), vehicle: sodium bicarbonate); 90 % of control (endpoint: mean survival time, dose: 0.75 mg/kg/injection, schedule: Q01DX009 (ip), vehicle: sodium bicarbonate); 87 % of control (endpoint: mean survival time, dose: 1.5 mg/kg/injection, schedule: Q01DX009 (ip), vehicle: sodium bicarbonate); 87 % of control (endpoint: mean survival time, dose: 3.0 mg/kg/injection, schedule: Q01DX009 (ip), vehicle: sodium bicarbonate); 98 % of control (endpoint: mean survival time, dose: 6.0 mg/kg/injection, schedule: Q01DX009 (ip), vehicle: sodium bicarbonate); 104 % of control (endpoint: mean survival time, dose: 12.0 mg/kg/injection, schedule: Q01DX009 (ip), vehicle: distilled water + Tween-80). Further, the T/C (endpoint: mean survival time, dose: 24.0 mg/kg/injection, schedule: Q01DX009 (ip), vehicle: distilled water + Tween-80) was 102 % of control and the T/C (endpoint: mean survival time, dose: 48.0 mg/kg/injection, schedule: Q01DX009 (ip), vehicle: distilled water + Tween-80) was 104 % of control.

For the compound `CCC(C)C(CO)c1ccccc1` (centres undefined), the T/C is, setting by setting: under setting [6], 98 % of control; under setting [1], 88 % of control.

In the case of `COc1ccc(/C=N/NC(=O)CNC(=O)Nc2cccc([N+](=O)[O-])c2)cc1`, the T/C runs as follows: under setting [6], 89 % of control; under setting [1], 93 % of control; under setting [2], 93 % of control.

Take `C[CH2][Ge]([CH2]C)[CH2]C.C[CH2][Ge]([CH2]C)[CH2]C`: the T/C is 104 % of control under setting [7], 100 % of control under setting [8] and 104 % of control under setting [9].

As to `CCCCCCCCCCCCCCCC(=O)N(CCCN)CCCN(CCCN)C(=O)CCCCCCCCCCCCCCC`, the T/C is, setting by setting: (endpoint: mean survival time, dose: 25.0 mg/kg/injection, schedule: Q01DX009 (ip), vehicle: saline with Tween-80) 97 % of control; under setting [6], 89 % of control.

`CC1(C(=O)c2ccccc2)CC2C=CC1C2` (centres undefined): the T/C runs as follows: (endpoint: mean survival time, dose: 50.0 mg/kg/injection, schedule: Q04DX002 (ip), vehicle: saline with Tween-80) 94 % of control; under setting [3], 108 % of control; under setting [4], 94 % of control.

Consider `COc1ccc(OC)c(NC(=O)Oc2ccc(C(=O)OCc3ccccc3)cc2)c1`, for which the T/C is, setting by setting: under setting [1], 101 % of control; under setting [2], 104 % of control; under setting [10], 104 % of control.

Take `COc1cc(OC)c(NC(=O)NC(C)C)cc1Cl`: the T/C is, setting by setting: under setting [1], 100 % of control; under setting [2], 96 % of control; under setting [10], 100 % of control.

`O=C(O)C(Br)C(Br)c1ccccc1[N+](=O)[O-]` (centres undefined): the T/C is, setting by setting: (endpoint: mean survival time, dose: 12.5 mg/kg/injection, schedule: Q01DX009 (ip), vehicle: other) 96 % of control; (endpoint: mean survival time, dose: 25.0 mg/kg/injection, schedule: Q01DX009 (ip), vehicle: other) 103 % of control; (endpoint: mean survival time, dose: 50.0 mg/kg/injection, schedule: Q01DX009 (ip), vehicle: other) 100 % of control; (endpoint: mean survival time, dose: 100.0 mg/kg/injection, schedule: Q01DX009 (ip), vehicle: other) 102 % of control; (endpoint: mean survival time, dose: 200.0 mg/kg/injection, schedule: Q01DX009 (ip), vehicle: other) 97 % of control.

Regarding `Cc1ccc([N+](=O)[O-])cc1NC(=O)Nc1c(C)n(C)n(-c2ccccc2)c1=O`, the T/C (endpoint: mean survival time, dose: 50.0 mg/kg/injection, schedule: Q01DX009 (ip), vehicle: Klucel (hydroxypropylcellulose) (HPC)) is 93 % of control; the T/C (endpoint: mean survival time, dose: 100.0 mg/kg/injection, schedule: Q01DX009 (ip), vehicle: Klucel (hydroxypropylcellulose) (HPC)) is 89 % of control; the T/C (endpoint: mean survival time, dose: 200.0 mg/kg/injection, schedule: Q01DX009 (ip), vehicle: Klucel (hydroxypropylcellulose) (HPC)) was 93 % of control.

Regarding `[Cl][Pt+2][Cl].[NH-]C1CCCC2CCC[N-]C12` (centres undefined), the T/C by setting is: under setting [3], 105 % of control; under setting [4], 121 % of control; under setting [5], 110 % of control.

For `O=NN(CCF)C(=O)NC1CCCCC1`, the T/C (endpoint: median survival time, dose: 2.5 mg/kg/injection, schedule: Q01DX001 (ip), vehicle: saline) is 101 % of control; the T/C (endpoint: median survival time, dose: 2.5 mg/kg/injection, schedule: Q04DX002 (ip), vehicle: saline) is 93 % of control; the T/C (endpoint: median survival time, dose: 5.0 mg/kg/injection, schedule: Q01DX001 (ip), vehicle: saline) was 101 % of control; the T/C (endpoint: median survival time, dose: 5.0 mg/kg/injection, schedule: Q04DX002 (ip), vehicle: saline) was 106 % of control; the T/C (endpoint: median survival time, dose: 10.0 mg/kg/injection, schedule: Q01DX001 (ip), vehicle: saline) is 102 % of control; the T/C (endpoint: median survival time, dose: 10.0 mg/kg/injection, schedule: Q04DX002 (ip), vehicle: saline) is 120 % of control and 223 % of control. Also, the T/C was 103 % of control (endpoint: median survival time, dose: 20.0 mg/kg/injection, schedule: Q01DX001 (ip), vehicle: saline); 365 % of control (endpoint: median survival time, dose: 20.0 mg/kg/injection, schedule: Q04DX002 (ip), vehicle: saline); 120 % of control (endpoint: median survival time, dose: 40.0 mg/kg/injection, schedule: Q01DX001 (ip), vehicle: saline); 216 % of control and 365 % of control (endpoint: median survival time, dose: 40.0 mg/kg/injection, schedule: Q04DX002 (ip), vehicle: saline); 168 % of control (endpoint: median survival time, dose: 80.0 mg/kg/injection, schedule: Q01DX001 (ip), vehicle: saline); 207 % of control and 361 % of control (endpoint: median survival time, dose: 80.0 mg/kg/injection, schedule: Q04DX002 (ip), vehicle: saline).

Regarding `CC1(C)N=C(N)N=C(N)N1c1cccc(CCCCc2ccc(S(=O)(=O)F)cc2Cl)c1`, the T/C reads like this: (endpoint: mean survival time, dose: 12.5 mg/kg/injection, schedule: Q01DX009 (ip), vehicle: saline sonified) 87 % of control; (endpoint: mean survival time, dose: 12.5 mg/kg/injection, schedule: Q04DX003 (ip), vehicle: saline sonified) 96 % of control; (endpoint: mean survival time, dose: 25.0 mg/kg/injection, schedule: Q01DX009 (ip), vehicle: saline sonified) 89 % of control; (endpoint: mean survival time, dose: 25.0 mg/kg/injection, schedule: Q04DX003 (ip), vehicle: saline sonified) 96 % of control; (endpoint: mean survival time, dose: 50.0 mg/kg/injection, schedule: Q04DX003 (ip), vehicle: saline sonified) 92 % of control.

For the compound `Cc1ccc(Cl)cc1[NH-].Cc1ccc(Cl)cc1[NH-].[Cl][Pt+2][Cl]`, the T/C is 100 % of control (endpoint: mean survival time, dose: 25.0 mg/kg/injection, schedule: Q04DX003 (ip), vehicle: saline with Tween-80); 95 % of control under setting [7]; 97 % of control under setting [8]; 101 % of control under setting [9].

`CCCNC1=C(C)C(=O)C2=C(C1=O)[C@@H](COC(N)=O)[C@]1(O)[C@H]3[C@@H](CN21)N3C` (some centres undefined): the T/C runs as follows: (endpoint: mean survival time, dose: 1.5 mg/kg/injection, schedule: Q01DX001 (ip), vehicle: water) 98 % of control and 103 % of control; (endpoint: mean survival time, dose: 3.0 mg/kg/injection, schedule: Q01DX001 (ip), vehicle: water) 97 % of control and 103 % of control; (endpoint: mean survival time, dose: 6.0 mg/kg/injection, schedule: Q01DX001 (ip), vehicle: water) 98 % of control and 101 % of control; (endpoint: mean survival time, dose: 12.0 mg/kg/injection, schedule: Q01DX001 (ip), vehicle: water) 98 % of control and 103 % of control; (endpoint: mean survival time, dose: 24.0 mg/kg/injection, schedule: Q01DX001 (ip), vehicle: water) 97 % of control and 101 % of control; (endpoint: mean survival time, dose: 50.0 mg/kg/injection, schedule: Q01DX001 (ip), vehicle: distilled water + Tween-80) 100 % of control. Further, the T/C (endpoint: mean survival time, dose: 100.0 mg/kg/injection, schedule: Q01DX001 (ip), vehicle: distilled water + Tween-80) is 108 % of control.

Take `O=C(N/N=C(/C(=N/NC(=O)c1ccccc1)c1ccccc1)c1ccccc1)c1ccccc1`: the T/C runs as follows: under setting [9], 91 % of control; (endpoint: mean survival time, dose: 400.0 mg/kg/injection, schedule: Q04DX003 (ip), vehicle: saline with Tween-80) 87 % of control.

In the case of `C=CCC#N`, the T/C (endpoint: mean survival time, dose: 100.0 mg/kg/injection, schedule: Q04DX003 (ip), vehicle: saline sonified) is 90 % of control.

As to `CCCCCCCCCCCCCCCCCC[N+]1(C)CCOCC1`, the T/C is 95 % of control (endpoint: mean survival time, dose: 6.25 mg/kg/injection, schedule: Q04DX002 (ip), vehicle: Klucel (hydroxypropylcellulose) (HPC)); 91 % of control (endpoint: mean survival time, dose: 12.5 mg/kg/injection, schedule: Q04DX002 (ip), vehicle: Klucel (hydroxypropylcellulose) (HPC)); 90 % of control and 98 % of control (endpoint: mean survival time, dose: 25.0 mg/kg/injection, schedule: Q04DX002 (ip), vehicle: Klucel (hydroxypropylcellulose) (HPC)); 101 % of control (endpoint: mean survival time, dose: 100.0 mg/kg/injection, schedule: Q04DX002 (ip), vehicle: Klucel (hydroxypropylcellulose) (HPC)).
